Measured values from US11477982B2, “2-amino-5-oxyalkyl-pyrimidine derivatives and their use for controlling undesired plant growth” (Bayer CropScience Aktiengesellschaft, priority 2017, dated 2022).

Experiments:
Type in all cases: in vivo
VERPE: Veronica persica [1] = assay: Post-emergence herbicidal effect; conditions: dosage 320 g/ha
Experimental: (§1) 2. Post-Emergence Herbicidal Effect and Crop Plant Compatibility
(§2) Seeds of monocotyledonous and dicotyledonous weeds and crop plants are placed in sandy loam in plastic or wood-fiber pots, covered with soil and cultivated in a greenhouse under controlled growth conditions, 2 to 3 weeks after sowing, the test plants are treated at the one-leaf stage. The compounds of the invention, formulated in the form of wettable powders (WP) or as emulsion concentrates (EC), are then sprayed onto the green parts of the plants as aqueous suspension or emulsion with addition of 0.5% additive at a water application rate of 600 l/ha (converted). After the test plants had been kept in the greenhouse under optimum growth conditions for about 3 weeks, the activity of the preparations is rated visually in comparison to untreated controls. For example, 100% activity=the plants have died, 0% activity=like control plants.

[2] = system: ABUTH: Abutilon theophrasti; assay: Post-emergence herbicidal effect; conditions: dosage 320 g/ha
Experimental: as §1, §2

VIOTR: Viola tricolor [3] = assay: Post-emergence herbicidal effect; conditions: dosage 320 g/ha
Experimental: as §1, §2

[4] = system: AMARE: Amaranthus retroflexus; assay: Post-emergence herbicidal effect; conditions: dosage 320 g/ha
Experimental: as §1, §2

SETVI: Setaria viridis [5] = assay: Post-emergence herbicidal effect; conditions: dosage 320 g/ha
Experimental: as §1, §2

STEME: Stellaria media [6] = assay: Post-emergence herbicidal effect; conditions: dosage 320 g/ha
Experimental: as §1, §2

[7] = system: ECHCG: Echinochloa crus-galli; assay: Post-emergence herbicidal effect; conditions: dosage 320 g/ha
Experimental: as §1, §2

VERPE: Veronica persica [8] = assay: Pre-emergence herbicidal effect; conditions: dosage 320 g/ha
From the text: (§3) 1. Pre-Emergence Herbicidal Effect and Crop Plant Compatibility
(§4) Seeds of monocotyledonous and dicotyledonous weed plants and crop plants are placed in plastic or wood fiber pots and covered with soil. The compounds of the invention, formulated in the form of wettable powders (WP) or as emulsion concentrates (EC), are then applied onto the surface of the covering soil as aqueous suspension or emulsion with addition of 0.5% additive at a water application rate of 600 l/ha (converted).
(§5) After the treatment, the pots are placed in a greenhouse and kept under good growth conditions for the trial plants. After about 3 weeks, the effect of the preparations is scored visually in comparison with untreated controls as percentages. For example, 100% activity=the plants have died, 0% activity=like control plants.

VIOTR: Viola tricolor [9] = assay: Pre-emergence herbicidal effect; conditions: dosage 320 g/ha
From the text: as §3, §4, §5

[10] = system: AMARE: Amaranthus retroflexus; assay: Pre-emergence herbicidal effect; conditions: pre-emergence; dosage 320 g/ha
From the text: as §3, §4, §5

[11] = system: POLCO: Polygonum convolvulus; assay: Pre-emergence herbicidal effect; conditions: dosage 320 g/ha
From the text: as §3, §4, §5

[12] = system: MATIN: Matricaria inodora; assay: Pre-emergence herbicidal effect; conditions: pre-emergence; dosage 320 g/ha
From the text: as §3, §4, §5

AVEFA: Avena fatua = assay: Pre-emergence herbicidal effect; conditions: dosage 320 g/ha
From the text: as §3, §4, §5

[13] = system: ALOMY: Alopecurus myosuroides; assay: Pre-emergence herbicidal effect; conditions: pre-emergence; dosage 320 g/ha
From the text: as §3, §4, §5

LOLRI: Lolium rigidum = assay: Pre-emergence herbicidal effect; conditions: dosage 320 g/ha
From the text: as §3, §4, §5

[14] = system: ABUTH: Abutilon theophrasti; assay: Pre-emergence herbicidal effect; conditions: dosage 320 g/ha
From the text: as §3, §4, §5

SETVI: Setaria viridis [15] = assay: Pre-emergence herbicidal effect; conditions: pre-emergence; dosage 320 g/ha
From the text: as §3, §4, §5

STEME: Stellaria media [16] = assay: Pre-emergence herbicidal effect; conditions: pre-emergence; dosage 320 g/ha
From the text: as §3, §4, §5

HORMU: Hordeum murinum = assay: Pre-emergence herbicidal effect; conditions: pre-emergence; dosage 320 g/ha
From the text: as §3, §4, §5

[17] = system: ECHCG: Echinochloa crus-galli; assay: Pre-emergence herbicidal effect; conditions: pre-emergence; dosage 320 g/ha
From the text: as §3, §4, §5

PHBPU: Ipomoea purpurea = assay: Pre-emergence herbicidal effect; conditions: dosage 320 g/ha
From the text: as §3, §4, §5

CCC(O)(c1cnc(N[C@H]2c3cc(C)ccc3C[C@@H]2C)nc1)C(F)(F)F (some centres unmarked) [Example 1.58]
90%: Herbicidal action against VERPE (VERPE: Veronica persica [1]) | Herbicidal action against ABUTH [2] | Herbicidal action against VIOTR (VIOTR: Viola tricolor [3]) | Herbicidal action against AMARE [4] | Herbicidal action against SETVI (SETVI: Setaria viridis [5]) | Herbicidal action against STEME (STEME: Stellaria media [6])
100%: Herbicidal action against ECHCG [7] | Herbicidal action against VERPE (VERPE: Veronica persica [8]) | Herbicidal action against VIOTR (VIOTR: Viola tricolor [9]) | Herbicidal action against AMARE [10] | Herbicidal action against POLCO [11] | Herbicidal action against MATIN [12]

C#CC(C)(O)c1cnc(N[C@H]2c3cc(C)ccc3C[C@@H]2C)nc1 (some centres unmarked) [Example 1.18]
100%: Herbicidal action against VERPE (VERPE: Veronica persica [1]) | Herbicidal action against STEME (STEME: Stellaria media [6]) | Herbicidal action against ECHCG [7] | Herbicidal action against AVEFA (AVEFA: Avena fatua) | Herbicidal action against VERPE (VERPE: Veronica persica [8]) | Herbicidal action against ALOMY [13] | Herbicidal action against LOLRI (LOLRI: Lolium rigidum) | Herbicidal action against ABUTH [14] | Herbicidal action against VIOTR (VIOTR: Viola tricolor [9]) | Herbicidal action against AMARE [10] | Herbicidal action against POLCO [11] | Herbicidal action against SETVI (SETVI: Setaria viridis [15]) | Herbicidal action against MATIN [12] | Herbicidal action against STEME (STEME: Stellaria media [16]) | Herbicidal action against HORMU (HORMU: Hordeum murinum) | Herbicidal action against ECHCG [17] | Herbicidal action against PHBPU (PHBPU: Ipomoea purpurea)
90%: Herbicidal action against ABUTH [2] | Herbicidal action against VIOTR (VIOTR: Viola tricolor [3]) | Herbicidal action against AMARE [4] | Herbicidal action against SETVI (SETVI: Setaria viridis [5])

Cc1ccc2c(c1)[C@H](Nc1ncc(C(C)(O)C3(C)CC3)cn1)[C@@H](C)C2 (some centres unmarked) [Example 1.61]
80%: Herbicidal action against AVEFA (AVEFA: Avena fatua)
100%: Herbicidal action against ECHCG [7] | Herbicidal action against VERPE (VERPE: Veronica persica [8]) | Herbicidal action against ALOMY [13] | Herbicidal action against LOLRI (LOLRI: Lolium rigidum) | Herbicidal action against ABUTH [14] | Herbicidal action against VIOTR (VIOTR: Viola tricolor [9]) | Herbicidal action against AMARE [10] | Herbicidal action against POLCO [11] | Herbicidal action against SETVI (SETVI: Setaria viridis [15]) | Herbicidal action against MATIN [12] | Herbicidal action against STEME (STEME: Stellaria media [16]) | Herbicidal action against HORMU (HORMU: Hordeum murinum) | Herbicidal action against ECHCG [17]
90%: Herbicidal action against ABUTH [2] | Herbicidal action against AMARE [4] | Herbicidal action against STEME (STEME: Stellaria media [6]) | Herbicidal action against PHBPU (PHBPU: Ipomoea purpurea)

Cc1ccc2c(c1)[C@H](Nc1ncc(C(C)(C)O)c(C(F)F)n1)[C@@H](C)C2 [Example 1.17]
100%: Herbicidal action against STEME (STEME: Stellaria media [6]) | Herbicidal action against AVEFA (AVEFA: Avena fatua) | Herbicidal action against VERPE (VERPE: Veronica persica [8]) | Herbicidal action against ALOMY [13] | Herbicidal action against LOLRI (LOLRI: Lolium rigidum) | Herbicidal action against ABUTH [14] | Herbicidal action against VIOTR (VIOTR: Viola tricolor [9]) | Herbicidal action against AMARE [10] | Herbicidal action against POLCO [11] | Herbicidal action against SETVI (SETVI: Setaria viridis [15]) | Herbicidal action against MATIN [12] | Herbicidal action against STEME (STEME: Stellaria media [16]) | Herbicidal action against HORMU (HORMU: Hordeum murinum) | Herbicidal action against ECHCG [17]
90%: Herbicidal action against ABUTH [2]
80%: Herbicidal action against AMARE [4] | Herbicidal action against ECHCG [7] | Herbicidal action against PHBPU (PHBPU: Ipomoea purpurea)

Cc1ccc2c(c1)[C@H](Nc1ncc(C(C)(C)O)c(C)n1)CCO2 [Example 1.53]
100%: Herbicidal action against ECHCG [7] | Herbicidal action against AVEFA (AVEFA: Avena fatua) | Herbicidal action against VERPE (VERPE: Veronica persica [8]) | Herbicidal action against ALOMY [13] | Herbicidal action against ABUTH [14] | Herbicidal action against VIOTR (VIOTR: Viola tricolor [9]) | Herbicidal action against AMARE [10] | Herbicidal action against POLCO [11] | Herbicidal action against SETVI (SETVI: Setaria viridis [15]) | Herbicidal action against MATIN [12] | Herbicidal action against STEME (STEME: Stellaria media [16]) | Herbicidal action against HORMU (HORMU: Hordeum murinum) | Herbicidal action against ECHCG [17] | Herbicidal action against PHBPU (PHBPU: Ipomoea purpurea)
90%: Herbicidal action against ABUTH [2] | Herbicidal action against AMARE [4] | Herbicidal action against STEME (STEME: Stellaria media [6]) | Herbicidal action against LOLRI (LOLRI: Lolium rigidum)

Cc1ccc2c(c1)[C@H](Nc1ncc(C(C)(C)O)cn1)CCO2 [Example 1.38]
90%: Herbicidal action against VERPE (VERPE: Veronica persica [1]) | Herbicidal action against ABUTH [2] | Herbicidal action against VIOTR (VIOTR: Viola tricolor [3]) | Herbicidal action against SETVI (SETVI: Setaria viridis [5])
100%: Herbicidal action against AMARE [4] | Herbicidal action against STEME (STEME: Stellaria media [6]) | Herbicidal action against ECHCG [7] | Herbicidal action against VERPE (VERPE: Veronica persica [8]) | Herbicidal action against VIOTR (VIOTR: Viola tricolor [9]) | Herbicidal action against AMARE [10] | Herbicidal action against POLCO [11] | Herbicidal action against MATIN [12]

Cc1ccc2c(c1)[C@H](Nc1ncc(C(C)(O)C3CC3)cn1)[C@@H](C)C2 (some centres unmarked) [Example 1.20]
100%: Herbicidal action against STEME (STEME: Stellaria media [6]) | Herbicidal action against ECHCG [7] | Herbicidal action against AVEFA (AVEFA: Avena fatua) | Herbicidal action against VERPE (VERPE: Veronica persica [8]) | Herbicidal action against ALOMY [13] | Herbicidal action against LOLRI (LOLRI: Lolium rigidum) | Herbicidal action against ABUTH [14] | Herbicidal action against VIOTR (VIOTR: Viola tricolor [9]) | Herbicidal action against AMARE [10] | Herbicidal action against POLCO [11] | Herbicidal action against SETVI (SETVI: Setaria viridis [15]) | Herbicidal action against MATIN [12] | Herbicidal action against STEME (STEME: Stellaria media [16]) | Herbicidal action against HORMU (HORMU: Hordeum murinum) | Herbicidal action against ECHCG [17] | Herbicidal action against PHBPU (PHBPU: Ipomoea purpurea)
90%: Herbicidal action against ABUTH [2] | Herbicidal action against AMARE [4]

CC(C)(O)c1cnc(N[C@@H]2CCc3ccccc32)nc1 [Example 1.30]
80%: Herbicidal action against VERPE (VERPE: Veronica persica [1])
90%: Herbicidal action against ABUTH [2] | Herbicidal action against VIOTR (VIOTR: Viola tricolor [3]) | Herbicidal action against SETVI (SETVI: Setaria viridis [5])
100%: Herbicidal action against AMARE [4] | Herbicidal action against STEME (STEME: Stellaria media [6]) | Herbicidal action against ECHCG [7] | Herbicidal action against VERPE (VERPE: Veronica persica [8]) | Herbicidal action against VIOTR (VIOTR: Viola tricolor [9]) | Herbicidal action against AMARE [10] | Herbicidal action against POLCO [11] | Herbicidal action against MATIN [12]

Cc1ccc2c(c1)[C@H](Nc1ncc(C(C)O)c(C)n1)CC2 (some centres unmarked) [Example 1.13]
80%: Herbicidal action against ABUTH [2]
100%: Herbicidal action against ECHCG [7] | Herbicidal action against AVEFA (AVEFA: Avena fatua) | Herbicidal action against VERPE (VERPE: Veronica persica [8]) | Herbicidal action against ALOMY [13] | Herbicidal action against LOLRI (LOLRI: Lolium rigidum) | Herbicidal action against ABUTH [14] | Herbicidal action against VIOTR (VIOTR: Viola tricolor [9]) | Herbicidal action against AMARE [10] | Herbicidal action against POLCO [11] | Herbicidal action against SETVI (SETVI: Setaria viridis [15]) | Herbicidal action against MATIN [12] | Herbicidal action against STEME (STEME: Stellaria media [16]) | Herbicidal action against HORMU (HORMU: Hordeum murinum) | Herbicidal action against ECHCG [17] | Herbicidal action against PHBPU (PHBPU: Ipomoea purpurea)
90%: Herbicidal action against AMARE [4] | Herbicidal action against STEME (STEME: Stellaria media [6])

Cc1ccc2c(c1)[C@H](Nc1ncc(C(C)(C)O)c(C(C)F)n1)[C@@H](C)C2 (some centres unmarked) [Example 1.23]
80%: Herbicidal action against HORMU (HORMU: Hordeum murinum)
100%: Herbicidal action against AVEFA (AVEFA: Avena fatua) | Herbicidal action against VERPE (VERPE: Veronica persica [8]) | Herbicidal action against ALOMY [13] | Herbicidal action against LOLRI (LOLRI: Lolium rigidum) | Herbicidal action against ABUTH [14] | Herbicidal action against VIOTR (VIOTR: Viola tricolor [9]) | Herbicidal action against AMARE [10] | Herbicidal action against POLCO [11] | Herbicidal action against SETVI (SETVI: Setaria viridis [15]) | Herbicidal action against MATIN [12] | Herbicidal action against STEME (STEME: Stellaria media [16]) | Herbicidal action against ECHCG [17] | Herbicidal action against PHBPU (PHBPU: Ipomoea purpurea)
